Earlier results on 3 compounds are cited in patent US20050256097A1, “Pharmaceutical solution formulations containing 17-AAG” (Kosan Biosciences, Inc., priority 2004, published 2005).

SMILES strings stand for the structures.

Consider `C=CCNC1=C2C[C@@H](C)C[C@H](OC)[C@H](O)[C@@H](C)/C=C(\C)[C@H](OC(N)=O)[C@@H](OC)/C=C\C=C(/C)C(=O)NC(=CC1=O)C2=O` [Sample 17-AAG, 17-allylamino-17-demethoxygeldanamycin], for which the “water solubility (in words)” value is reported as “very poor water solubility”. For the same compound, the water solubility result (neutral pH) is reported as “about 0.1 mg/mL”.
`COC1/C=C\C=C(/C)C(=O)NC2=CC(=O)C(NCCN(C)C)=C(C[C@@H](C)C[C@H](OC)[C@H](O)[C@@H](C)/C=C(\C)[C@@H]1OC(N)=O)C2=O` (stereo partly shown) [Sample 17-DMAG, 17-(2-dimethylaminoethyl)amino-17-demethoxygeldanamycin]: the “water solubility (in words)” value is “more soluble”.
As to `COC1=C2C[C@@H](C)C[C@H](OC)[C@H](O)[C@@H](C)/C=C(\C)[C@H](OC(N)=O)[C@@H](OC)/C=C\C=C(/C)C(=O)NC(=CC1=O)C2=O` [geldanamycin, Geldanamycin], the “water solubility (in words)” value is “very poor water solubility”.
